Assay results published in patent US12559750B2, “Methods and compositions for treatment of polycystic kidney disease” (Regulus Therapeutics Inc., priority 2021, dated 2026).
Values belong to the sequence of their own block, whether it stands above or below them. e = 2'-O-(2-methoxyethyl) (MOE); k = constrained ethyl (cEt); d = 2'-deoxy (DNA); m = 2'-O-methyl; f = 2'-fluoro

Target: AMPA-R
Assay: [3H]AMPA radioligand binding assay on rat brain synaptic membranes;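 also: competition binding in which test compounds at rising concentrations displace [3H]AMPA from AMPA-R on rat brain synaptic membranes, with reduced bound radioligand as read-out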
Details: for % Inhibition @ Concentration 100 uM: Table 8 (3′-terminal nucleobase/sugar variants); for % Inhibition @ Concentration 0.1 uM: Table 8, 0.1 uM; for % Inhibition @ Concentration 1 uM: Table 8, 1 uM; for % Inhibition @ Concentration 10 uM: Table 8, 10 uM

Sequence: ASGSCMAFCFUFUMUSDM [RG-NG-1037]
IC50 (Table 8): ≥ 100 µM
% Inhibition @ Concentration 100 uM: 10.7%
% Inhibition @ Concentration 0.1 uM: 11.1%
% Inhibition @ Concentration 1 uM: 9.2%
% Inhibition @ Concentration 10 uM: 2.4%

Sequence: ASGSCMAFCFUFUMUSNM [RG-NG-1036]
IC50 (Table 8): 18.6 µM
% Inhibition @ Concentration 100 uM: 78.1%
% Inhibition @ Concentration 0.1 uM: 19.2%
% Inhibition @ Concentration 1 uM: 11.3%
% Inhibition @ Concentration 10 uM: 36.2%

Sequence: ASGSCSAFCFUFUMUSCS [RG-NG-1027]
IC50 (Experiment #2): > 100 µM
% Inhibition @ 0.1 uM (Experiment #2, 0.1 uM): −2.2%
% Inhibition @ 1 uM (Experiment #2, 1 uM): 2.3%
% Inhibition @ 10 uM (Experiment #2, 10 uM): −2.2%
% Inhibition @ 100 uM (Experiment #2, 100 uM): 3%

Sequence: CETEGSCEAECETEGSTEADASGSCMAFCFUFUMUSGS (CTGCACTGTAAGCACUUUG; sugars from the 5' end eekeeeekedkkmfffmkk, backbone and methylation of C not given here) [RG-NG-1040]
IC50 (Table 8): 28.6 µM
% Inhibition @ Concentration 100 uM: 64.1%
% Inhibition @ Concentration 0.1 uM: 10.4%
% Inhibition @ Concentration 1 uM: 14.4%
% Inhibition @ Concentration 10 uM: 38.9%

Sequence: TEAASGSCMAFCFUFUMUSCS (TAAGCACUUUC; 2'-MOE at 1, cEt at 3, 4, 10, 11, 2'-O-methyl at 5, 9, 2'-fluoro at 6, 7, 8, other sugars and backbone not given here) [RG-NG-1021]
IC50 (Experiment #3): > 100 µM
% Inhibition @ 0.1 uM (Experiment #3, 0.1 uM): −2%
% Inhibition @ 1 uM (Experiment #3, 1 uM): −10.9%
% Inhibition @ 10 uM (Experiment #3, 10 uM): −11.5%
% Inhibition @ 100 uM (Experiment #3, 100 uM): −1.5%

Sequence: TEAFASGSCMAFCFUFUMUSCS (TAAGCACUUUC; 2'-MOE, S-cEt, 2'-F, 2'-OMe modifications; modified_base 1 OTHER; thymine; misc_feature 1..11 Synthetic: RG-NG-1022; modified_base 1..2 OTHER; 2'-O-methoxyethyl nucleoside; modified_base 3..4 OTHER; S-constrained ethyl nucleoside; modified_base 5 OTHER; 2'-O-methyl nucleoside; modified_base 6..8 OTHER; 2'-fluoro nucleoside; modified_base 9 OTHER; modified_base 10..11 OTHER)
IC50 (Experiment #3): > 100 µM
% Inhibition @ 0.1 uM (Experiment #3, 0.1 uM): −23.5%
% Inhibition @ 1 uM (Experiment #3, 1 uM): −5.4%
% Inhibition @ 10 uM (Experiment #3, 10 uM): −7%
% Inhibition @ 100 uM (Experiment #3, 100 uM): −10.9%

Sequence: TEGSTEAASGSCMAFCFUFUMUSCS (TGTAAGCACUUUC; anti-miR; 2'-MOE at 1, 3, cEt at 2, 5, 6, 12, 13, 2'-O-methyl at 7, 11, 2'-fluoro at 8, 9, 10, other sugars and backbone not given here) [RG-NG-1020]
IC50 (Experiment #3): > 100 µM
% Inhibition @ 0.1 uM (Experiment #3, 0.1 uM): 17%
% Inhibition @ 1 uM (Experiment #3, 1 uM): 6.6%
% Inhibition @ 10 uM (Experiment #3, 10 uM): −23.3%
% Inhibition @ 100 uM (Experiment #3, 100 uM): −7.9%

Sequence: USASAMGCSASCSUMUMUSGS (antisense UAAGCACUUUG; cEt at 1, 2, 5, 6, 7, 10, 11, 2'-O-methyl at 3, 8, 9, other sugars and backbone not given here) [RG-NG-1005]
IC50 (Experiment #1): > 100 µM
% Inhibition @ 0.1 uM (Experiment #1, 0.1 uM): 10.8%
% Inhibition @ 1 uM (Experiment #1, 1 uM): −1.3%
% Inhibition @ 10 uM (Experiment #1, 10 uM): 0.8%
% Inhibition @ 100 uM (Experiment #1, 100 uM): 28.3%

Sequence: USASASGSCSASCSUSUSUSGS [RG-NG-1004]
IC50 (Experiment #1): 17.3 µM
% Inhibition @ 0.1 uM (Experiment #1, 0.1 uM): −4.7%
% Inhibition @ 1 uM (Experiment #1, 1 uM): 4.7%
% Inhibition @ 10 uM (Experiment #1, 10 uM): 44.2%
% Inhibition @ 100 uM (Experiment #1, 100 uM): 76.1%

More lines, now with the values ahead:

% Inhibition @ Concentration 100 uM: 30.2%
% Inhibition @ Concentration 0.1 uM: 27.3%
% Inhibition @ Concentration 1 uM: 27%
% Inhibition @ Concentration 10 uM: 35.8%
Sequence: ASGSCMAFCFUFUMUSED [RG-NG-1039]

IC50 (Table 8): 0.13 µM
% Inhibition @ Concentration 100 uM: 97.3%
% Inhibition @ Concentration 0.1 uM: 44.9%
% Inhibition @ Concentration 1 uM: 80.9%
% Inhibition @ Concentration 10 uM: 96.5%
Sequence: ASGSCMAFCFUFUMUSGD [RG-NG-1033]

IC50 (Experiment #3): 1.85 µM
% Inhibition @ 0.1 uM (Experiment #3, 0.1 uM): −3.8%
% Inhibition @ 1 uM (Experiment #3, 1 uM): 36.5%
% Inhibition @ 10 uM (Experiment #3, 10 uM): 84.1%
% Inhibition @ 100 uM (Experiment #3, 100 uM): 96.4%
Sequence: ASGSCMAFCFUFUMUSGE [RG-NG-1025]

IC50 (Table 8): 1.2 µM
% Inhibition @ Concentration 100 uM: 99.7%
% Inhibition @ Concentration 0.1 uM: 14.3%
% Inhibition @ Concentration 1 uM: 44.8%
% Inhibition @ Concentration 10 uM: 85.2%
Sequence: ASGSCMAFCFUFUMUSGM [RG-NG-1034]

IC50 (Table 8): 0.76 µM
% Inhibition @ Concentration 100 uM: 98.5%
% Inhibition @ Concentration 0.1 uM: 27.2%
% Inhibition @ Concentration 1 uM: 46.3%
% Inhibition @ Concentration 10 uM: 91.3%
Sequence: ASGSCMAFCFUFUMUSIM [RG-NG-1035]

IC50 (Experiment #2): > 100 µM
% Inhibition @ 0.1 uM (Experiment #2, 0.1 uM): −3.3%
% Inhibition @ 1 uM (Experiment #2, 1 uM): −1.1%
% Inhibition @ 10 uM (Experiment #2, 10 uM): −3.5%
% Inhibition @ 100 uM (Experiment #2, 100 uM): 2.3%
Sequence: ASGSCMALCFUFUMUSCS [RG-NG-1026]

IC50 (Experiment #1): 9.26 µM
% Inhibition @ 0.1 uM (Experiment #1, 0.1 uM): 5.7%
% Inhibition @ 1 uM (Experiment #1, 1 uM): 13.9%
% Inhibition @ 10 uM (Experiment #1, 10 uM): 56.9%
% Inhibition @ 100 uM (Experiment #1, 100 uM): 77.8%
Sequence: ASGSCMASCMUSUMUSGS [RG-NG-1003]

IC50 (Experiment #2): > 100 µM
% Inhibition @ 0.1 uM (Experiment #2, 0.1 uM): 15.7%
% Inhibition @ 1 uM (Experiment #2, 1 uM): 2.1%
% Inhibition @ 10 uM (Experiment #2, 10 uM): 2%
% Inhibition @ 100 uM (Experiment #2, 100 uM): 2.7%
Sequence: ASGSCSALCFUFUMUSCS [RG-NG-1028]

IC50 (Experiment #1): > 100 µM
% Inhibition @ 0.1 uM (Experiment #1, 0.1 uM): 0%
% Inhibition @ 1 uM (Experiment #1, 1 uM): −2.0%
% Inhibition @ 10 uM (Experiment #1, 10 uM): −16.9%
% Inhibition @ 100 uM (Experiment #1, 100 uM): 24.0%
IC50 (Experiment #2): > 100 µM
% Inhibition @ 0.1 uM (Experiment #2, 0.1 uM): −5.5%
% Inhibition @ 1 uM (Experiment #2, 1 uM): 4.6%
% Inhibition @ 10 uM (Experiment #2, 10 uM): −2.1%
% Inhibition @ 100 uM (Experiment #2, 100 uM): 24.6%
Sequence: ASGSCSASCSUSUSUS [RG-NG-1002]
